Measured values: patent US11401254B2, “Substituted thiophenecarboxamides and analogues as antibacterials agents” (Bayer Aktiengesellschaft, priority 2018, dated 2022)

What was measured:
[1] = tested on: Xanthomonas campestris pv. campestris; assay: Xanthomonas campestris pv. campestris in vitro cell test (bacteria growth in liquid culture); assay type: cell-based; settings: 20 ppm of tested compound; 24 h of incubation
Method: Example A: Xanthomonas Campestris pv. Campestris In Vitro Cell Test
Culture medium: LB broth medium (Luria Broth Miller) Sigma
Inoculum: bacteria suspension
Compounds to be tested were solubilized in DMSO and the solution used to prepare the required range of concentrations. The final concentration of DMSO used in the assay was ≤1%.
Inoculum was prepared from a pre-culture of bacteria grown in liquid medium and diluted to the desired optical density (OD).
Compounds were evaluated for their ability to inhibit bacteria growth in liquid culture assay. The compounds were added in the desired concentrations to culture medium containing the bacteria suspension. After 24 h of incubation, the efficacy of compounds was determined by spectrometric measurement of bacteria growth. Inhibition was determined by comparing the absorbance values in wells containing the compounds with the absorbance in control wells without compounds.

[2] = tested on: Xanthomonas campestris pv. campestris; assay: In vivo preventive test on Xanthomonas campestris pv. campestris (black rot on cabbage); settings: Example C comparative table; same conditions as described in Example B; concentration not given
Method: Example B: In Vivo Preventive Test on Xanthomonas campestris pv. Campestris (Black Rot on Cabbage)
The tested compounds were prepared by homogenization in a mixture of acetone/Dimethyl sulfoxide/Tween®, and then diluted with water to obtain the desired concentration.
The young plants of cabbage were treated by spraying the compound prepared as described above. Control plants were treated only with an aqueous solution of acetone/Dimethyl sulfoxide/Tween®.
After 72 hours, the plants were contaminated by spraying the leaves with an aqueous bacteria suspension of Xanthomonas campestris pv. campestris. The contaminated cabbage plants were incubated for 8 or 10 days at 27° C. at 95% relative humidity.
The test was evaluated 8 or 10 days after the inoculation. 0% means an efficacy which corresponds to that of the control plants while an efficacy of 100% means that no disease was observed.
Compounds CMP3, CMP4, CMP5 and CMP6 were tested in an in vivo preventive test on Xanthomonas campestris pv. campestris (black rot on cabbage) in the same conditions as described in Example B.

[3] = Log P by HPLC on reversed phase columns (EEC directive 79/831 Annex V.A8); assay type: physicochemical; settings: for chromatographic logP: reversed phase HPLC columns
Method: In the above tables, measurement of Log P values was performed according to EEC directive 79/831 Annex V.A8 by HPLC (High Performance Liquid Chromatography) on reversed phase columns with the following methods: • ^[a]
If more than one Log P value is available within the same method, all the values are given and separated by “+”.
Calibration was done with straight-chain alkan2-ones (with 3 to 16 carbon atoms) with known Log P values (measurement of Log P values using retention times with linear interpolation between successive alkanones). Lambda-max-values were determined using UV-spectra from 200 nm to 400 nm and the peak values of the chromatographic signals.

[4] = method [a]: LC-UV, acidic range, 0.1% formic acid in water and acetonitrile as eluent
[5] = value given in preparation example, method variant not stated

LogP [3, 4]	chromatographic logP [3, 4]	chromatographic logP [3, 5]	Structure (SMILES)	direct activity (inhibition of bacteria growth) [1]	Efficacy (%) [2] [%]
3.02^[a]	–	–	CCOC(=O)CNC(=O)c1sc(Br)c(Br)c1C [I.02]	no direct activity	>80
–	–	–	CCOC(=O)C(NC(=O)c1sc(Br)c(Br)c1Br)C(C)C (stereo not drawn) [CMP3, reference compound]	–	33
–	4.32	4.32	CCOC(=O)[C@@H](NC(=O)c1sc(Br)c(Br)c1C)C(C)C (racemic) [I.04, ethyl N-[(4,5-dibromo-3-methyl-2-thienyl)carbonyl]-valinate]	no direct activity	>90
3.76^[a]	–	–	Cc1c(C(=O)NCC(=O)OCc2ccccc2)sc(Cl)c1Cl [I.34]	no direct activity	–
4.56^[a]	–	–	CCOC(=O)C(CC(C)C)NC(=O)c1sc(Br)c(Br)c1C (stereo not drawn) [I.05]	no direct activity	–
4.98^[a]	–	–	Cc1c(C(=O)NC(C(=O)OC2CCC2)C(C)C)sc(Br)c1Br (stereo not drawn) [I.53]	no direct activity	–
3.94^[a]	–	–	CCOC(=O)C(CCSC)NC(=O)c1sc(Cl)c(Cl)c1C (stereo not drawn) [I.47]	no direct activity	–
4.77^[a]	–	–	Cc1c(C(=O)NC(C(=O)OC(C)C)C(C)C)sc(Br)c1Br (stereo not drawn) [I.49]	no direct activity	–
3.42^[a]	–	–	Cc1c(C(=O)NC(C(=O)OC2CS(=O)(=O)C2)C(C)C)sc(Br)c1Br (stereo not drawn) [I.18]	no direct activity	–
3.79^[a]	–	–	COC(=O)[C@@H](NC(=O)c1sc(Cl)c(Cl)c1C)C(C)C [I.29]	no direct activity	–
2.26^[a]	–	–	Cc1c(C(=O)NC2(C(=O)O)CC2)sc(Cl)c1Cl [I.51]	no direct activity	–
–	2.92	2.92	Cc1c(C(=O)N[C@H](C(=O)O)C(C)C)sc(Br)c1Br (racemic) [I.07, N-[(4,5-dibromo-3-methyl-2-thienyl)carbonyl]-valine]	no direct activity	–
–	–	–	Cc1c(C(=O)NC(CC(C)C)C(=O)O)sc(Br)c1Br (stereo not drawn) [I.90]	–	>70
3.31^[a]	–	–	CCOC(=O)C(C)NC(=O)c1sc(Cl)c(Cl)c1C (stereo not drawn) [I.27]	no direct activity	–
–	3.19	3.22	CCOC(=O)C1(NC(=O)c2sc(Br)c(Br)c2C)CC1 [I.01, ethyl 1-{[(4,5-dibromo-3-methyl-2-thienyl)carbonyl]amino}cyclopropanecarboxylate]	no direct activity	–
3.94^[a]	–	–	CCOC(=O)[C@H](CCSC)NC(=O)c1sc(Cl)c(Cl)c1C [I.24]	no direct activity	–
3.78^[a]	–	–	Cc1c(C(=O)NC(C(=O)OC2CCOC2)C(C)C)sc(Br)c1Br (stereo not drawn) [I.19]	no direct activity	–
3.87^[a]	–	–	COC(=O)[C@@H](NC(=O)c1sc(Br)c(Br)c1C)C(C)C [I.11]	no direct activity	–
5.03^[a]	–	–	Cc1c(C(=O)NC(C(=O)OCc2ccccc2)C(C)C)sc(Br)c1Br (stereo not drawn) [I.57]	no direct activity	–

LogP [3, 4]	chromatographic logP [3, 4]	chromatographic logP [3, 5]	Structure (SMILES)	direct activity (inhibition of bacteria growth) [1]	Efficacy (%) [2] [%]
3.29^[a]	–	–	CCOC(=O)C(Cc1ccc(O)cc1)NC(=O)c1sc(Cl)c(Cl)c1C (stereo not drawn) [I.39]	no direct activity	–
–	–	–	CCOC(=O)CNC(=O)c1sc(Br)c(Br)c1Br [CMP4, reference compound]	–	0
3.39^[a]	–	–	CCOC(=O)C(C)NC(=O)c1sc(Br)c(Br)c1C (stereo not drawn) [I.21]	no direct activity	–
5.25^[a]	–	–	Cc1c(C(=O)NC(C(=O)OC(C)(C)C)C(C)C)sc(Br)c1Br (stereo not drawn) [I.61]	no direct activity	–
3.69^[a]	–	–	Cc1c(C(=O)NC(C(=O)OCC#N)C(C)C)sc(Br)c1Br (stereo not drawn) [I.15]	no direct activity	–
4.51^[a]	–	–	Cc1c(C(=O)NC(C(=O)OCC(F)(F)F)C(C)C)sc(Br)c1Br (stereo not drawn) [I.59]	no direct activity	–
4.54^[a]	–	–	CCOC(=O)[C@H](CC(C)C)NC(=O)c1sc(Cl)c(Cl)c1C [I.33]	no direct activity	–
4.37^[a]	–	–	Cc1c(C(=O)NC(C(=O)OC2CC2)C(C)C)sc(Br)c1Br (stereo not drawn) [I.56]	no direct activity	–
3.08^[a]	–	–	CCOC(=O)C1(NC(=O)c2sc(Cl)c(Cl)c2C)CC1 [I.43]	no direct activity	–
2.39^[a]	–	–	Cc1c(C(=O)NC(C)C(=O)O)sc(Br)c1Br (stereo not drawn) [I.79]	–	>70
–	2.9	2.95	CCOC(=O)CNC(=O)c1sc(Cl)c(Cl)c1C [I.03, ethyl N-[(4,5-dichloro-3-methyl-2-thienyl)carbonyl]glycinate]	no direct activity	–
3.55^[a]	–	–	COC(=O)[C@H](CCSC)NC(=O)c1sc(Cl)c(Cl)c1C [I.30]	no direct activity	–
3.55^[a]	–	–	COC(=O)[C@@H](CCSC)NC(=O)c1sc(Cl)c(Cl)c1C [I.36]	no direct activity	–
5.25^[a]	–	–	CCCCOC(=O)C(NC(=O)c1sc(Br)c(Br)c1C)C(C)C (stereo not drawn) [I.55]	no direct activity	–
4.06^[a]	–	–	C#CCOC(=O)C(NC(=O)c1sc(Br)c(Br)c1C)C(C)C (stereo not drawn) [I.13]	no direct activity	–
4.51^[a]	–	–	CCOC(=O)C(CC(C)C)NC(=O)c1sc(Cl)c(Cl)c1C (stereo not drawn) [I.37]	no direct activity	–
–	–	–	CC(C)CC(NC(=O)c1cc(Br)c(Br)s1)C(=O)O (stereo not drawn) [CMP6, reference compound]	–	15
4.85^[a]	–	–	Cc1c(C(=O)NC(C(=O)Oc2ccccc2)C(C)C)sc(Br)c1Br (stereo not drawn) [I.60]	no direct activity	–
4.46^[a]	–	–	CCOC(=O)[C@H](Cc1ccccc1)NC(=O)c1sc(Cl)c(Cl)c1C [I.26]	no direct activity	–

Structure (SMILES)	LogP [3, 4]	chromatographic logP [3, 4]	chromatographic logP [3, 5]	direct activity (inhibition of bacteria growth) [1]	Efficacy (%) [2] [%]
Cc1c(C(=O)NCC(=O)OC(C)(C)C)sc(Cl)c1Cl [I.28]	3.77^[a]	–	–	no direct activity	–
Cc1c(C(=O)NC(C(=O)OCC(C)C)C(C)C)sc(Br)c1Br (stereo not drawn) [I.14]	5.22^[a]	–	–	no direct activity	–
CCOC(=O)[C@@H](C)NC(=O)c1sc(Cl)c(Cl)c1C [I.42]	3.31^[a]	–	–	no direct activity	–
Cc1c(C(=O)NC(C(=O)OC2CSC2)C(C)C)sc(Br)c1Br (stereo not drawn) [I.17]	4.67^[a]	–	–	no direct activity	–
CCOC(=O)C(Cc1ccccc1)NC(=O)c1sc(Cl)c(Cl)c1C (stereo not drawn) [I.38]	4.46^[a]	–	–	no direct activity	–
CCOC(=O)[C@@H](Cc1ccccc1)NC(=O)c1sc(Cl)c(Cl)c1C [I.45]	4.46^[a]	–	–	no direct activity	–
